Test [1] relates to GULP1 transcript. The experiment in a line: 5-Aza-dC treatment of UC cell lines, GULP1 expression by RT-PCR. In kind it is cell-based, human. The procedure: Twenty four hours before treatment, cells were plated at low density (1-3×10^6 cells, dependent on growth characteristics of the respective cell line) in T75 cm^2 Tissue Culture Flasks (BD Biosciences, Bedford, Mass., USA). Stock solutions of 100 mM 5-Aza-dC (Sigma-Aldrich, St. Louis, Mo.) and 5 mM Trichostatin A (TSA) (Sigma-Aldrich) were prepared with DMSO (Sigma-Aldrich). Immediately before addition to the cell culture medium, appropriate aliquots of the stock solutions were dissolved in PBS (pH 7.5). Cells were treated with 5 μM 5-Aza-dC for 3 to 5 days. Medium with 5-Aza-dC was changed daily. Additionally, combination treatment with 5-Aza-dC and TSA was performed by adding 5 μM of 5-Aza-dC daily for 5 days and TSA (300 nmol/L) was added to the medium for the final 24 hours. Cells were harvested 24 hours after the last day of treatment (5-Aza-dC only and 5-Aza-dC+TSA) for RNA extraction and the analysis of gene expression by Reverse Transcriptase-PCR (RT-PCR).
Total RNA (500 ng) from cell lines and from bladder tissue were reverse-transcribed with qScript cDNA SuperMix™ (Quanta BioSciences) kit. The primers were designed by using Primer3 software. Actin type B (ACTB) was used as a loading control. […] Expression of the gene of interest was quantified by 2^−ΔΔCT method.

The test system of test [2] is T24 shGULP1 cells versus T24 shScramble cells. The experiment in a line: MTT viability assay upon treatment with serial dilution of cisplatin. In kind it is cell-based, human. The conditions noted are these: T24 shGULP1 vs T24 shScramble, different concentrations of CDDP. Background: Tetrazolium assays rely on reduction of a dye to a coloured formazan, in cell work by metabolically active cells.

Test [3] deals with muscle-invasive bladder cancer (MIUC). The conditions noted are these: patients with MIUC, neo-adjuvant chemotherapy preceding radical surgery; cited from earlier work.
In test [4] the test system is GULP1 localization in T24 cells. The test can be described thus: Confocal imaging of GULP1 subcellular localization upon blocking nuclear export. In kind it is cell-based, human. The conditions noted are these: treatment for 5 hours. The method, then:
To this end, the subcellular localization of GULP1 was determined by confocal microscopy analysis and nuclear-cytoplasm fractionation experiments using T24 cell line. The findings indicate that GULP1 localized in both nucleus and cytoplasm (FIG. 3d, upper and lower panel, and FIG. 8a). Ubiquitous localization pattern of GULP1 was further confirmed by performing immunofluorescence and confocal microscopy analysis by using two different antibodies against GULP1 and upon blocking nuclear export machinery by Leptomycin B (LMB) treatment for 5 hours (T24 cells in FIG. 3d and FIG. 8b).
Cells were grown on glass coverslips for 72 hs. After fixation in 4% paraformaldehyde, they were incubated in PBS 0.2% Glycine, permeabilized with PBS 10% Triton X100 for 10 minutes and incubated in Blocking buffer (PBS 3% BSA, 10% goat serum, 0.02% Tween) for 2-3 hours at r.t.
Incubation with the indicated primary antibodies (see Table 5) has been performed at 4° C. in the dark. After 5 washing with PBS 0.02% Tween, coverslips have been incubated with the indicated secondary antibodies (Table 5) for 1 h at r.t. For the case actin cytoskeleton analysis, after fixation, the coverslips have been incubated 90 minutes with Alexa Fluor® 488 Phalloidin (Life Technologies, 1:1000 in PBS). […] Slides were examined and photographed using a fluorescence microscope.

For test [5], the target named is T1, Nuclear factor E2-related factor 2 (Nrf2) (UniProt Q16236 1-605, limits assumed).
T1 construct: Endogenous protein from lysates of human cell lines; also called NFE2L2; NF2EL2
T1 sequence (looked up): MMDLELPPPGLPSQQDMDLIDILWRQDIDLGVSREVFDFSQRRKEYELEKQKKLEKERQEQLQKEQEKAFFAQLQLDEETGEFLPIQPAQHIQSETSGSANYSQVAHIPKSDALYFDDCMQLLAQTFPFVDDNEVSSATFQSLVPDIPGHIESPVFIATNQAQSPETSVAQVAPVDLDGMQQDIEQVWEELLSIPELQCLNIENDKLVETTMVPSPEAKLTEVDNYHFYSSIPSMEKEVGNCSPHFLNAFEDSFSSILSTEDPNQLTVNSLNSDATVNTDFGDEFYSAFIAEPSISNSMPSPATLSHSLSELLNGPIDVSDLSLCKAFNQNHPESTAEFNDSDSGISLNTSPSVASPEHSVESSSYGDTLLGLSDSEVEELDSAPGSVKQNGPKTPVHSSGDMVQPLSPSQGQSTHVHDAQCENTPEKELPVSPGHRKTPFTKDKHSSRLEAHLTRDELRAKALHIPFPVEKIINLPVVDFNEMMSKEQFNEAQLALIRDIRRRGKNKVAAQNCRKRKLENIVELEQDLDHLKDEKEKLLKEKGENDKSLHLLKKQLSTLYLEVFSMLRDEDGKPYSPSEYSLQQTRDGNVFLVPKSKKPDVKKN
The experiment in a line: co-immunoprecipitation of endogenous GULP1 from whole-cell lysates (BFTC905, BFTC909, HUC1, T24), western blot. The source says:
(§1) a. […] Confocal imaging analysis of T24 cells. […] A not related protein antibody was used as a negative control for IP and 10% of whole cell lysate was used as input. d.
(In general: Immunoblotting shows a protein as a band on a membrane.)

The target of test [6] is T2, BTB and CNC homology 1 (Bach1) (UniProt O14867 1-736).
T2 construct: Endogenous protein from lysates of human cell lines
T2 sequence (looked up): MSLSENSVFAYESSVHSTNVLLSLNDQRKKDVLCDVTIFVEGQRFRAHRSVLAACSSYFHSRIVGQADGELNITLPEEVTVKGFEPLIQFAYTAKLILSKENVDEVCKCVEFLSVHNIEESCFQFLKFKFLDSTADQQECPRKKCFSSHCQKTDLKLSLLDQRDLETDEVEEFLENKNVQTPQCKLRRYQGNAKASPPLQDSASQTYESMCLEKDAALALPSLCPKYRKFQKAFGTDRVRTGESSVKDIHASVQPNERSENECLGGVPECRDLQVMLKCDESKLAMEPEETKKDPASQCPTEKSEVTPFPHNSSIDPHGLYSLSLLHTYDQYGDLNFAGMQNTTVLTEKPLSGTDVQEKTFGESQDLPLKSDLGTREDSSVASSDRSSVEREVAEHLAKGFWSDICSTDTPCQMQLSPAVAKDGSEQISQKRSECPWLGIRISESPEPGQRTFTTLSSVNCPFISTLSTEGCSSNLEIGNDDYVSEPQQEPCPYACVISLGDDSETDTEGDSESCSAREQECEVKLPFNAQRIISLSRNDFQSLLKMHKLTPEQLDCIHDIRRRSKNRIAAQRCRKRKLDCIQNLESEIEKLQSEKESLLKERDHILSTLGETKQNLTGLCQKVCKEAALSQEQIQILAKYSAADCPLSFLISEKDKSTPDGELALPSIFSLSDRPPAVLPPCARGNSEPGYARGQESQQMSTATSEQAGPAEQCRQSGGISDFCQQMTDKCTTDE
The test is described as above.
Source text: as §1

For `Nc1ncn([C@H]2C[C@H](O)[C@@H](CO)O2)c(=O)n1` [5-aza-dC, 5-Aza-2′-deoxycytidine], the GULP1 transcript level result in test [1] (HT-1376 and SW780 UC cells, 5-azadC with or without trichostatin A (TSA), consistent with promoter demethylation) is listed as “several fold increase in GULP1 transcript”. For the same molecule, the GULP1 reactivation result in test [1] (UC cell lines) was “reactivation of GULP1 was observed”. As to `[NH2][Pt]([NH2])([Cl])[Cl]` [CDDP, Cisplatin], the “Cell viability of GULP1 knock-down cells compared with control cells” value in test [2] is “significantly higher viability than the control cells”. Further, the “overall long-term survival benefit” value in test [3] is 6%. `CCC(=C/[C@H](C)C/C=C/C(C)=C/[C@@H](C)C(=O)[C@@H](C)[C@H](O)[C@@H](C)C/C(C)=C/C(=O)O)/C=C/[C@@H]1OC(=O)C=C[C@@H]1C` [Leptomycin B]: the GULP1 nuclear export entry in test [4] is given as “prevent GULP1 from going out from nucleus”.

B1: PTB Domain-Containing Engulfment Adaptor Protein1 (GULP1) (other, human, UniProt Q9UBP9 1-304, looked up)
chain: MNRAFSRKKDKTWMHTPEALSKHFIPYNAKFLGSTEVEQPKGTEVVRDAVRKLKFARHIKKSEGQKIPKVELQISIYGVKILEPKTKEVQHNCQLHRISFCADDKTDKRIFTFICKDSESNKHLCYVFDSEKCAEEITLTIGQAFDLAYRKFLESGGKDVETRKQIAGLQKRIQDLETENMELKNKVQDLENQLRITQVSAPPAGSMTPKSPSTDIFDMIPFSPISHQSSMPTRNGTQPPPVPSRSTEIKRDLFGAEPFDPFNCGAADFPPDIQSKLDEMQEGFKMGLTLEGTVFCLDPLDSRC
notes: Endogenous protein from cell lysates; also called engulfment adaptor PTB domain containing 1; human homologue of CED-6
Take B1: the binding result in test [5] and in test [6] was “no binding” throughout.

Values taken from US20220064736A1, “UROTHELIAL CANCER AND METHODS OF DETECTION AND TARGETED THERAPY” (THE JOHNS HOPKINS UNIVERSITY, priority 2015, published 2022).
